Reference: PubChem BioAssay (NCI)
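Protocol summary: plate cells (96-well), add compound at 5 concentrations, incubate 48 h, interpolate endpoints linearly. TGI denotes the concentration required for complete inhibition of growth.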

Assays:
Assay in all cases: NCI tumour cell line growth inhibition, 48 h
CAKI-1 renal = system: CAKI-1 renal
DU-145 prostate = system: DU-145 prostate
EKVX NSCLC = system: EKVX NSCLC
HCC-2998 colon = system: HCC-2998 colon
HCT-15 colon = system: HCT-15 colon
HL-60(TB) leukemia = system: HL-60(TB) leukemia
HOP-92 NSCLC = system: HOP-92 NSCLC
M14 melanoma = system: M14 melanoma
MCF7 breast = system: MCF7 breast
NCI-H226 lung = system: NCI-H226 lung
NCI-H522 lung = system: NCI-H522 lung
OVCAR-5 ovarian = system: OVCAR-5 ovarian
RPMI-8226 leukemia = system: RPMI-8226 leukemia
SNB-19 CNS = system: SNB-19 CNS
SNB-75 CNS = system: SNB-75 CNS
UO-31 renal = system: UO-31 renal
SF-268 CNS = system: SF-268 CNS
BT-549 breast = system: BT-549 breast

Row | SMILES | TGI (CAKI-1 renal) [µM] | TGI (DU-145 prostate) [µM] | TGI (EKVX NSCLC) [µM] | TGI (HCC-2998 colon) [µM] | TGI (HCT-15 colon) [µM] | TGI (HL-60(TB) leukemia) [µM] | TGI (HOP-92 NSCLC) [µM] | TGI (M14 melanoma) [µM] | TGI (MCF7 breast) [µM] | TGI (NCI-H226 lung) [µM] | TGI (NCI-H522 lung) [µM] | TGI (OVCAR-5 ovarian) [µM] | TGI (RPMI-8226 leukemia) [µM] | TGI (SNB-19 CNS) [µM] | TGI (SNB-75 CNS) [µM] | TGI (UO-31 renal) [µM] | TGI (SF-268 CNS) [µM] | TGI (BT-549 breast) [µM]
1 | NCc1ccc(-c2ccc(CN)s2)s1 | > 100 | > 100 | > 100 | > 100 | > 100 | > 100 | > 100 | > 100 | > 100 | > 100 | > 100 | > 100 | > 100 | > 100 | > 100 | > 100 | – | –
2 | COC(=O)/C(C)=N/NC(=S)SC | > 100 | > 100 | > 100 | > 100 | > 100 | 28.5 | > 100 | 57 | > 100 | > 100 | 81.8 | > 100 | > 100 | – | – | > 100 | > 100 | –
3 | O=S(=O)(/N=S(/Nc1ccccc1)C(Cl)Cl)c1ccccc1 (configuration not stated) | – | > 100 | > 100 | – | > 100 | > 100 | > 100 | > 100 | > 100 | > 100 | – | > 100 | > 100 | > 100 | > 100 | > 100 | > 100 | > 100
4 | C1=C(CC2=C[P+](c3ccccc3)(c3ccccc3)C=C(c3ccccc3)O2)OC(c2ccccc2)=C[P+]1(c1ccccc1)c1ccccc1 | 5.39 | 1.73 | 1.68 | – | 3.22 | 0.446 | – | 1.8 | – | – | – | 2.39 | 0.558 | 1.25 | 0.881 | 2.94 | 1.61 | 0.309
5 | CC(=O)c1c(-c2ccc(Cl)cc2)c(-c2ccc(Cl)cc2)n[nH]c1=O | > 100 | > 100 | > 100 | > 100 | > 100 | 68.8 | > 100 | > 100 | > 100 | > 100 | – | > 100 | 55.4 | > 100 | – | – | > 100 | –
6 | CC1(n2nc(-c3ccccc3)n(-c3ccccc3)c2=O)CSC1 | > 100 | – | > 100 | > 100 | > 100 | > 100 | > 100 | > 100 | – | > 100 | > 100 | > 100 | > 100 | > 100 | > 100 | > 100 | > 100 | –
7 | O=c1[nH]c2cccc([N+](=O)[O-])c2c(=O)n1-c1ccc(Cl)cc1 | 19.5 | 41.1 | 28 | 31.4 | 30.2 | 53.3 | 47.9 | 29.2 | 25.5 | 30.1 | – | 36.5 | 36.1 | 45 | – | – | 30.4 | 23.7
8 | O=C1c2ccccc2C(=O)C2NC(CCCCCSSCCCCCC3=NC4C(=O)c5ccccc5C(=O)C4N3)=NC12 (configuration not stated) | > 100 | > 100 | > 100 | – | > 100 | > 100 | 69.2 | > 100 | > 100 | > 100 | > 100 | > 100 | > 100 | – | – | > 100 | > 100 | –
9 | Cc1ccc(-c2c(C#N)c(-c3ccccc3)n(NS(=O)(=O)c3ccc(C)cc3)c(=O)c2C#N)cc1 | > 100 | – | > 100 | > 100 | > 100 | – | > 100 | > 100 | > 100 | > 100 | > 100 | > 100 | 31.6 | > 100 | > 100 | – | > 100 | > 100
10 | N=c1c2ccccc2nc2oc3cc([N+](=O)[O-])ccc3n12 | > 100 | – | 89 | > 100 | > 100 | – | – | > 100 | > 100 | 30.3 | > 100 | > 100 | > 100 | > 100 | 24.9 | 32.3 | 85.2 | 91.6
11 | C1C2CC3CC1CC(c1nn4c(C56CC7CC(CC(C7)C5)C6)nnc4s1)(C2)C3 | > 100 | > 100 | > 100 | > 100 | > 100 | > 100 | > 100 | > 100 | – | > 100 | > 100 | > 100 | > 100 | > 100 | > 100 | > 100 | > 100 | –
12 | CCCCCCCCCCCCCCCCP(=O)(O)OCC(N)C(=O)O (configuration not stated) | 56.2 | > 100 | > 100 | > 100 | > 100 | 39.2 | 48.2 | > 100 | – | > 100 | 42.8 | 65.1 | 62.7 | 44.8 | 65.1 | 31.7 | 74 | –
13 | CN(CCC(=O)N1CC(CCl)c2ccc([N+](=O)[O-])cc21)CCC(=O)N1CC(CCl)c2ccc([N+](=O)[O-])cc21 (configuration not stated) | 48 | > 100 | 42.7 | 18.2 | 25.9 | – | – | 21.7 | 23.5 | > 100 | 21.7 | > 100 | 13.9 | > 100 | 19 | – | 28.5 | > 100
14 | C=C(C)C1CC=C(C)C(=O)C1 (configuration not stated) | > 100 | > 100 | > 100 | > 100 | > 100 | > 100 | > 100 | > 100 | > 100 | > 100 | > 100 | > 100 | > 100 | > 100 | > 100 | > 100 | > 100 | –
15 | Cc1nc2ccccc2c(=O)n1NC(=O)c1ccccn1 | – | > 100 | > 100 | > 100 | – | > 100 | > 100 | > 100 | – | – | > 100 | – | > 100 | > 100 | > 100 | > 100 | > 100 | > 100
16 | CC(C)CCCC(C)[C@H]1CC[C@H]2n3c(nnc3-c3ccccc3)CCC[C@]12C (some centres not stated) | 29.7 | 83 | – | 0.0669 | 68.9 | 16.2 | 37 | 30.1 | 20.7 | 37.5 | – | – | 21.1 | 28.2 | 35.3 | 23.2 | 28.2 | 41.7
17 | O=C(CP(=O)(c1ccccc1)c1ccccc1)c1cccc(C(=O)CP(=O)(c2ccccc2)c2ccccc2)c1 | > 100 | > 100 | > 100 | > 100 | > 100 | > 100 | – | > 100 | > 100 | > 100 | – | > 100 | > 100 | > 100 | 37.6 | > 100 | > 100 | –
18 | CC[C@]12C=CCN3CC[C@@]4(c5cc(Br)c(OC)c([N+](=O)[O-])c5N(C)[C@H]4[C@@](O)(C(=O)OC)[C@@H]1OC(C)=O)[C@@H]32 | > 100 | > 100 | 91.4 | – | > 100 | > 100 | – | > 100 | > 100 | > 100 | – | > 100 | > 100 | > 100 | > 100 | > 100 | > 100 | > 100
19 | C[C@]12CCC(O)CC1=CC[C@@H]1[C@@H]2CC[C@]2(C)C(O)[C@H](n3ccnc3)C[C@@H]12 (some centres not stated) | > 100 | > 100 | > 100 | – | > 100 | 38.3 | > 100 | > 100 | > 100 | > 100 | > 100 | > 100 | > 100 | > 100 | > 100 | > 100 | > 100 | –
20 | Cc1ccc(S(=O)(=O)NC(=O)NCc2ccc(S(N)(=O)=O)cc2)cc1 | > 100 | > 100 | > 100 | > 100 | > 100 | > 100 | > 100 | > 100 | > 100 | > 100 | > 100 | > 100 | > 100 | > 100 | > 100 | > 100 | > 100 | –
21 | COc1ccccc1C[C@@H]1OC2(C=CC(=O)CC2SC(=O)c2ccccc2)O[C@H]1Cc1ccccc1OC (some centres not stated) | 5.24 | 18 | – | – | 4.75 | 5.64 | 3.31 | 3.26 | 2.36 | – | – | 2.63 | 0.943 | 4.94 | 3.28 | 2.54 | 2.44 | 2.74
22 | OCC1OC(NC(=S)NCCC(F)(F)C(F)(F)C(F)(F)C(F)(F)C(F)(F)C(F)(F)F)C(O)C(O)C1O (configuration not stated) | > 100 | > 100 | – | > 100 | > 100 | > 100 | > 100 | > 100 | > 100 | – | – | > 100 | > 100 | > 100 | > 100 | > 100 | > 100 | > 100
23 | NC1C/C(=N\O)c2c(Cl)sc(Cl)c21 (configuration not stated) | 32.2 | 29 | 34 | > 100 | 33 | > 100 | 42.9 | 34.1 | 27.5 | 41.4 | – | 40 | 65.3 | 94.3 | 76.9 | 34.3 | > 100 | 32.9
24 | CC(=O)NC1C(OCc2ccccc2)OC(CO)C(O)C1OC(C)C(=O)NC(C(=O)NC(CCC(=O)NCCCC(=O)Nc1ccc2c(c1)CN1C(=O)c3ccccc3C1=N2)C(N)=O)C(C)C (configuration not stated) | > 100 | > 100 | > 100 | > 100 | > 100 | > 100 | > 100 | > 100 | > 100 | – | – | > 100 | > 100 | > 100 | > 100 | > 100 | > 100 | > 100
25 | N=C1C(=N)c2ccccc2-c2ccccc21.[Cl-].[Ru+2].c1cnc2c(c1)ccc1cccnc12.c1cnc2c(c1)ccc1cccnc12 | – | – | 93.5 | > 100 | > 100 | 54 | 67.9 | 43.3 | – | – | 54.7 | > 100 | – | – | > 100 | > 100 | > 100 | –
26 | O=C1Cc2c([nH]c3ccc(Br)cc23)-c2cc(Br)ccc2N1 | > 100 | > 100 | > 100 | > 100 | > 100 | – | > 100 | > 100 | > 100 | > 100 | – | > 100 | > 100 | > 100 | – | > 100 | > 100 | > 100
27 | Cc1c2c(cc3c1C(=O)C(=O)C([C@@H](C)CO)=C3O)C(C)(C)CCC2 | > 100 | > 100 | > 100 | – | > 100 | – | > 100 | 67.5 | – | > 100 | 62.8 | > 100 | > 100 | 23.3 | 86.5 | 38.6 | > 100 | > 100
28 | CCOc1cccc(C=Nc2ccccc2SSc2ccccc2N=Cc2cccc(OCC)c2O)c1O | 29.3 | 30.9 | 19 | 44.1 | 12.9 | 14.8 | 33.3 | 19.4 | – | 22.5 | 10.4 | 14.6 | 35.9 | 47.4 | 56 | 26.6 | 21.5 | 8.19
29 | COc1ccc(NC(=S)Nc2cc(C)ccn2)cc1 | > 100 | > 100 | > 100 | > 100 | > 100 | > 100 | > 100 | – | > 100 | > 100 | – | – | > 100 | > 100 | > 100 | > 100 | > 100 | > 100
